Laboratory results taken from PMC9897788, “Design, synthesis and cytotoxic evaluation of novel bis-thiazole derivatives as preferential Pim1 kinase inhibitors with in vivo and in silico study” (Journal of Enzyme Inhibition and Medicinal Chemistry, 2023).

Legend:
Assay in all cases: NCI 60 cell one-dose screening (SRB)
Assay type in all cases: cell-based
[1] = tested on: 786-0; details: Homo sapiens; 786-0, Renal Cancer; single dose 10 µM, 48 h; read-out: Percentage of cellular growth inhibition
Experimental: (§1) The 60 cancerous cell panel screening was performed following the Developmental Therapeutics Program (DTP) of the National Cancer Institute (NIH-NCI), USA. A single dose of 10 µM was used to perform the screening at 48 h incubation and the results were achieved as cancerous cell growth percentage relative to the no-drug control that was converted to an inhibition percentage by subtracting from 100.The cancerous cell lines were grown in RPMI 1640 medium containing 5% foetal bovine serum and 2 mM L-glutamine at 37 °C, 5% CO2, 95% air and 100% relative humidity for 24 h prior to addition of the tested compounds. After 24 h, two plates of each cell line were fixed in situ with TCA to represent a measurement of the cell population for each cell line at the time of drug addition (Tz). Compounds were dissolved in DMSO at 400-fold the desired final maximum test concentration and stored frozen prior to use. At the time of drug addition, an aliquot of frozen concentrate was thawed and diluted to twice the desired final maximum test concentration with complete medium containing 50 µg/mL gentamicin. Aliquots of 100 µL of the compounds dilution was added to the appropriate micro titre wells already containing 100 µL of medium, resulting in the required final drug concentrations of 10 µM. Following compounds addition, the plates were incubated for an additional 48 h at 37 °C, 5% CO2, 95% air, and 100% relative humidity. For adherent cells, the assay was terminated by the addition of cold TCA. Cells were fixed in situ by the gentle addition of 50 µL of cold 50% (w/v) TCA (final concentration, 10% TCA) and incubated for 60 min at 4 °C. The supernatant was discarded, and the plates were washed five times with tap water and air dried. Sulphorhodamine B (SRB) solution (100 µL) at 0.4% (w/v) in 1% acetic acid is added to each well, and plates are incubated for 10 min at room temperature. After staining, unbound dye was removed by washing five times with 1% acetic acid and the plates were air dried. Bound stain was subsequently solubilised with 10 mM trizma base, and the absorbance was read on an automated plate reader at a wavelength of 515 nm. For suspension cells, the methodology was the same except that the assay was terminated by fixing settled cells at the bottom of the wells by gently adding 50 µL of 80% TCA (final concentration, 16% TCA). Using the seven absorbance measurements [time zero, (Tz), control growth, I, and test growth in the presence of drug at the five concentration levels (Ti)], the percentage growth was calculated as: [(Ti−Tz)/(C−Tz)]×100 for concentrations for which Ti>/=Tz [(Ti−Tz)/Tz]×100 for concentrations for which Ti<Tz.

[2] = tested on: CAKI-1; details: Homo sapiens; CAKI-1, Renal Cancer; single dose 10 µM, 48 h; read-out: Percentage of cellular growth inhibition
Experimental: as §1

[3] = tested on: CCRF-CEM; details: Homo sapiens, Leukemia, single dose 10 µM, 48 h, read-out: Percentage of cellular growth inhibition
Experimental: as §1

[4] = tested on: COLO 205; details: Homo sapiens; COLO 205, Colon Cancer; single dose 10 µM, 48 h; read-out: Percentage of cellular growth inhibition
Experimental: as §1

[5] = tested on: HCT-116; details: Homo sapiens; HCT-116, Colon Cancer; single dose 10 µM, 48 h; read-out: Percentage of cellular growth inhibition
Experimental: as §1

[6] = tested on: HOP-62; details: Homo sapiens; HOP-62, Non-Small Cell Lung Cancer; single dose 10 µM, 48 h; read-out: Percentage of cellular growth inhibition
Experimental: as §1

[7] = tested on: HS 578T; details: Homo sapiens, Breast Cancer, single dose 10 µM, 48 h, read-out: Percentage of cellular growth inhibition
Experimental: as §1

[8] = tested on: KM12; details: Homo sapiens; KM12, Colon Cancer; single dose 10 µM, 48 h; read-out: Percentage of cellular growth inhibition
Experimental: as §1

[9] = tested on: M14; details: Homo sapiens; M14, Melanoma; single dose 10 µM, 48 h; read-out: Percentage of cellular growth inhibition
Experimental: as §1

[10] = tested on: MALME-3M; details: Homo sapiens, Melanoma, single dose 10 µM, 48 h, read-out: Percentage of cellular growth inhibition
Experimental: as §1

[11] = tested on: MCF7; details: Homo sapiens; MCF7, Breast Cancer; single dose 10 µM, 48 h; read-out: Percentage of cellular growth inhibition
Experimental: as §1

[12] = tested on: MOLT-4; details: Homo sapiens; MOLT-4, Leukemia; single dose 10 µM, 48 h; read-out: Percentage of cellular growth inhibition
Experimental: as §1

[13] = tested on: NCI-H322M; details: Homo sapiens, Non-Small Cell Lung Cancer, single dose 10 µM, 48 h, read-out: Percentage of cellular growth inhibition
Experimental: as §1

[14] = tested on: OVCAR-4; details: Homo sapiens; OVCAR-4, Ovarian Cancer; single dose 10 µM, 48 h; read-out: Percentage of cellular growth inhibition
Experimental: as §1

[15] = tested on: OVCAR-5; details: Homo sapiens; OVCAR-5, Ovarian Cancer; single dose 10 µM, 48 h; read-out: Percentage of cellular growth inhibition
Experimental: as §1

[16] = tested on: RPMI-8226; details: Homo sapiens; RPMI-8226, Leukemia; single dose 10 µM, 48 h; read-out: Percentage of cellular growth inhibition
Experimental: as §1

[17] = tested on: SF-539; details: Homo sapiens; SF-539, CNS Cancer; single dose 10 µM, 48 h; read-out: Percentage of cellular growth inhibition
Experimental: as §1

[18] = tested on: SK-MEL-5; details: Homo sapiens; SK-MEL-5, Melanoma; single dose 10 µM, 48 h; read-out: Percentage of cellular growth inhibition
Experimental: as §1

[19] = tested on: SNB-19; details: Homo sapiens; SNB-19, CNS Cancer; single dose 10 µM, 48 h; read-out: Percentage of cellular growth inhibition
Experimental: as §1

[20] = tested on: SNB-75; details: Homo sapiens; SNB-75, CNS Cancer; single dose 10 µM, 48 h; read-out: Percentage of cellular growth inhibition
Experimental: as §1

[21] = tested on: UACC-257; details: Homo sapiens; UACC-257, Melanoma; single dose 10 µM, 48 h; read-out: Percentage of cellular growth inhibition
Experimental: as §1

Row | Compound | inhibition at 10 µM [1] [%] | inhibition at 10 µM [2] [%] | inhibition at 10 µM [3] [%] | inhibition at 10 µM [4] [%] | inhibition at 10 µM [5] [%] | inhibition at 10 µM [6] [%] | inhibition at 10 µM [7] [%] | inhibition at 10 µM [8] [%] | inhibition at 10 µM [9] [%] | inhibition at 10 µM [10] [%] | inhibition at 10 µM [11] [%] | inhibition at 10 µM [12] [%] | inhibition at 10 µM [13] [%] | inhibition at 10 µM [14] [%] | inhibition at 10 µM [15] [%] | inhibition at 10 µM [16] [%] | inhibition at 10 µM [17] [%] | inhibition at 10 µM [18] [%] | inhibition at 10 µM [19] [%] | inhibition at 10 µM [20] [%] | further results
1 | S=C(Nc1ccccc1)Nc1cccc(NC(=S)Nc2ccccc2)c1 [compound 7, 1,1′-(1,3-phenylene)bis(3-phenylthiourea)] | -13.4 | 10.9 | 56.8 | -37.6 | -11.8 | -18.9 | 3.9 | 1 | -19.6 | 10.8 | 8.5 | -5.8 | 2.6 | -6.6 | -4.9 | -19.2 | -11.5 | 1.5 | 3.4 | 7.9 | inhibition at 10 µM [21]: -1.7%
2 | c1ccc(-c2csc(Nc3cccc(Nc4nc(-c5ccccc5)cs4)c3)n2)cc1 [6a, N^1,N^3-bis(4-phenylthiazol-2-yl)benzene-1,3-diamine] | 49.6 | 65.1 | 61.4 | 16.5 | 60 | 27 | 43.5 | 98.9 | 52.2 | 47.2 | 84.4 | 86.3 | 41.9 | 62.4 | 35.5 | 50.7 | 42.3 | 79 | 42 | 51.4 | inhibition at 10 µM [21]: 53.9%
3 | CCOc1ccc(/N=N/c2sc(Nc3cccc(Nc4nc(C)c(/N=N/c5ccc(OCC)cc5)s4)c3)nc2C)cc1 [5b, N^1,N^3-bis(5-((4-ethoxyphenyl)diazinyl)-4-methylthiazol-2-yl)benzene-1,3-diamine] | 6.6 | 8.3 | -13.9 | -5.1 | 3.8 | -1.3 | 2.2 | -0.8 | -7 | -6.9 | 10.6 | -2.2 | 11.4 | 0.1 | 9 | -7.2 | 0.1 | 0.8 | 11.5 | 7.8 | inhibition at 10 µM [21]: -9.2%
